In PMC10976043, “Function and Mechanism of Antiviral Wasp Venom Peptide Protopolybia-MP III and Its Derivatives against HSV-1” (Toxins, 2024):
Read-outs that look alike come from different tables or passages of the source. Ends that are not written are not given here.

Experiments:
[1] = test system: HSV-1 ICP0; format: cell-based, herpes simplex virus type 1; conditions: for inhibition rate on intracellular HSV-1 ICP0 protein expression: ICP0, 1 h; for inhibition rate on intracellular HSV-1 ICP0 expression level: ICP0, 24 h
Procedure: (§1) (A) Amino acid sequence of Protopolybia-MP III. Basic residues are labeled blue, and acidic residues are labeled red. (B,C) Suppression of intracellular HSV-1 infection by Protopolybia-MP III. Cells were preincubated with Protopolybia-MP III at different concentrations or PBS for 1 h and then infected with HSV-1 at a multiplicity of infection (MOI) of 1. After 24 h, the cells were collected. Intracellular HSV-1 RNA was analyzed by qPCR (B), and intracellular HSV-1 ICP0 protein levels were analyzed by Western blotting (C). (D) Suppression of Protopolybia-MP III on extracellular HSV-1 particles. Cells were treated with Protopolybia-MP III at different concentrations or PBS for 24 h, and then the supernatant was collected and evaluated in a plaque formation assay. (E) Cytotoxicity of Protopolybia-MP III to Vero cells. Cells were treated with Protopolybia-MP III or PBS at different concentrations for 24 h, and then the cytotoxicity was determined by CCK8 assay. * p < 0.05. ** p < 0.01. *** p < 0.001.
(§2) Figure 2 Protopolybia-MP III inhibits HSV-1 replication in human cell lines. (A) Cytotoxicities of Protopolybia-MP III to A549 cells, HCEC, and SK-N-MC. Cells were treated with Protopolybia-MP III at different concentrations or PBS for 24 h, and then cytotoxicities were determined by the CCK8 assay. (B,C) Suppression of intracellular HSV-1 infection by Protopolybia-MP III in A549 cells, HCEC, and SK-N-MC. Cells were preincubated with Protopolybia-MP III at different concentrations or PBS for 1 h and then infected with HSV-1 at an MOI of 1. After 24 h, the cells were collected. Intracellular HSV-1 RNA was analyzed by qPCR (B), and intracellular HSV-1 ICP0 protein expression levels were analyzed by Western blotting (C). (D) Inhibition of Protopolybia-MP III on extracellular HSV-1 particles in A549 cells, HCEC, and SK-N-MC. Cells were treated with Protopolybia-MP III at different concentrations or PBS for 24 h, and then the supernatant was collected and evaluated in a plaque formation assay. * p < 0.05. ** p < 0.01. *** p < 0.001.
(§3) Figure 7 Antiviral activity analysis of Protopolybia-MP III mutants. (A) Amino acid sequences of Protopolybia-MP III mutants. Identical amino acids among Protopolybia-MP I, Protopolybia-MP III, and its mutants are marked in blue, and different amino acids are marked in red. (B) Suppression of Protopolybia-MP I, Protopolybia-MP III, and its mutants on intracellular HSV-1 content. Cells were preincubated with 20 μg/mL peptides or PBS for 1 h and then infected with HSV-1 at an MOI of 1. After 24 h, the cells were collected. Intracellular HSV-1 ICP0 protein levels were analyzed by Western blotting. The ratios of HSV-1 ICP0 to GAPDH were calculated by ImageJ software. (C) Inhibition of HSV-1 free virion infectivity by Protopolybia-MP I, Protopolybia-MP III, and its mutants. HSV-1 (MOI = 1) and 5 μg/mL peptides or PBS were coincubated at 37 °C for 1 h, and the mixtures were then used to infect Vero cells. After 24 h, cells were collected, and intracellular HSV-1 RNA was analyzed by qPCR. ns, no significance. * p < 0.05. ** p < 0.01. *** p < 0.001.
(§4) HSV-1 was kindly provided by Professor Zhijian Cao of Wuhan University. Cells were infected with HSV-1 at an MOI of 1 for 24 h. Then, cells were collected for qPCR, Western blotting, and immunofluorescence assays, and the extracellular supernatant was used for plaque formation assays.
Cells were collected and lysed in 1% SDS. The cell lysate was heated at 100 °C for 20 min and centrifuged at 12,000 rpm at 4 °C for 15 min, and then the supernatant was collected and assayed with a BCA Protein Quantification Kit (Vazyme). Equal amounts of protein were separated using a PAGE Gel Fast Preparation Kit (10%) (Epizyme Biotech, Wuhan, China) and transferred to nitrocellulose (NC) membranes (Millipore, Wuhan, China). […]

[2] = test system: HSV-1 virion; experiment: HSV-1 free virion infectivity assay, qPCR; format: cell-based, herpes simplex virus type 1; conditions: mutant comparison (Figure 7C): 5 μg/mL coincubated with HSV-1 (MOI 1) at 37 °C for 1 h, then Vero cells infected, 24 h
Procedure: Figure 5 Protopolybia-MP III destroys the integrity of HSV-1 free virions. (A) Schematic diagram for studying the effect of Protopolybia-MP III on HSV-1 free virion infectivity. (B) Effects of Protopolybia-MP III on HSV-1 free virion infectivity at different temperatures. HSV-1 (MOI = 1) and 20 μg/mL Protopolybia-MP III or PBS were coincubated at 4 °C, 22 °C, and 37 °C for 1 h, and then Vero cells were infected as described in (A). After 24 h, cells were collected, and intracellular HSV-1 RNA was analyzed by qPCR. (C) Effects of different concentrations of Protopolybia-MP III on HSV-1 free virion infectivity. HSV-1 (MOI = 1) and 1 or 10 μg/mL Protopolybia-MP III or PBS were coincubated at 37 °C for 1 h, and then Vero cells were infected as described in (A). After 24 h, cells were collected, and intracellular HSV-1 RNA was analyzed by qPCR. (D,E) The effect of Protopolybia-MP III on HSV-1 free virion integrity. HSV-1 and 20 μg/mL Protopolybia-MP III or PBS were coincubated at 37 °C for 1 h. Then, after centrifuging for 2 h at 40,000 rpm at 4 °C, the contents of HSV-1 gB in the supernatant and precipitate were detected by Western blotting (D). In addition, the structure of HSV-1 virions after incubation with Protopolybia-MP III was observed by electron microscopy. The red arrow points to a destroyed HSV-1 virion. *** p < 0.001.
as §3
(§5) Cells were collected and lysed using TRIzol reagent (Beyotime Biotechnology, Shanghai, China) to release the intracellular total RNA, followed by precipitation with isopropanol. The first-strand cDNA was reverse-transcribed by the HiScript III 1st Strand cDNA Synthesis Kit (+gDNA wiper) (Vazyme, Nanjing, China). The cDNA was quantitated by qPCR with primers using Taq Pro Universal SYBR qPCR Master Mix (Vazyme). The HSV-1 primers were 5′-[…]-3′ (sense) and 5′-[…]-3′ (antisense). The monkey GAPDH primers were 5′-[…]-3′ (sense) and 5′-[…]-3′ (antisense). The human GAPDH primers were 5′-[…]-3′ (sense) and 5′-[…]-3′ (antisense). qPCR experiments were performed on a Bio-Rad CFX96 Touch (Pleasanton, CA, USA) according to the manufacturer’s instructions.

[3] = test system: Vero cells; experiment: CCK8 cytotoxicity assay, Vero cells; format: cell-based, monkey; conditions: 40 μg/mL, 24 h
Procedure: as §1
Cells were seeded in a 96-well plate (7000–10,000 cells per well) and cultured at 37 °C overnight. Peptides in a series of concentrations were added to the medium, and cells were then incubated at 37 °C for 24 h. […] Finally, the absorbance was measured at 450 nm using a microplate reader (BioTek, Winooski, VT, USA).

[4] = test system: HSV-1; format: cell-based, herpes simplex virus type 1; conditions: Vero cells, preincubated 1 h, HSV-1 MOI 1, 24 h, qPCR
Procedure: as §1, §2, §4, §5

[5] = test system: HSV-1; experiment: Plaque formation assay of extracellular HSV-1 particles; format: cell-based, herpes simplex virus type 1; conditions: Vero cells treated 24 h, supernatant in plaque formation assay
Procedure: as §1, §2
Vero cells seeded in a 24-well plate at 100% confluence were infected with virus diluent or supernatant. After 1 h of absorption at 37 °C, the supernatant was removed. Cells were washed three times with PBS and replenished with a plaque-covering layer (MEM with 2% FBS and 1.5% carboxymethylcellulose). After an incubation period of approximately 3 days, the cells were stained with 1% crystal violet containing 10% methanol for 0.5 h. Then, the plaques were counted, and the viral titer was calculated according to the plaque number and dilution.

| Substance | inhibition rate on intracellular HSV-1 ICP0 protein expression ([1]; 20 μg/mL) [%] | inhibition rate of HSV-1 free virion infectivity [2] [%] | further results |
| --- | --- | --- | --- |
| INWLKLGKAVIAAL-NH2 [MP III-3] | 94 | 58.3 |  |
| INWLKLGKAVIAIL-NH2 [MP III-10] | 100 | 100 |  |
| INWLKLGKAVIDIL-NH2 [MP III-4] | 99.4 |  |  |
| INWLKLGKAVSAAL-NH2 [MP III-8] | 66 |  |  |
| INWLKLGKAVSAIL-NH2 [MP III-11] | 73.4 | 64.7 |  |
| INWLKLGKAVSDAL-NH2 [MP III-2] | 20.6 | 27.4 |  |
| INWLKLGKAVSDIL-NH2 [MP III-9] | 63.8 | 63.6 |  |
| INWLKLGKKVIAAL-NH2 [MP III-6] | 63.2 | 95.5 |  |
| INWLKLGKKVIAIL-NH2 [MP III-12] | 76.8 | 92.4 |  |
| INWLKLGKKVIDAL-NH2 [MP III-1] | 53.7 | 59.7 |  |
| INWLKLGKKVIDIL-NH2 [MP III-7] | 100 | 100 |  |
| INWLKLGKKVSAAL-NH2 [MP III-14] | 90.8 | 25.3 |  |
| INWLKLGKKVSAIL-NH2 [Protopolybia-MP I] |  |  | cytotoxicity to Vero cells [3]: almost nontoxic; inhibition rate on intracellular HSV-1 ICP0 expression level ([1]; 5 μg/mL): 17%; inhibition rate on intracellular HSV-1 ICP0 expression level ([1]; 10 μg/mL): 17%; inhibition rate on intracellular HSV-1 ICP0 expression level ([1]; 20 μg/mL): 25%; inhibition rate on intracellular HSV-1 RNA ([4]; 5 μg/mL peptide): no effect; inhibition rate on intracellular HSV-1 RNA ([4]; 10 μg/mL peptide): no effect; inhibition rate on intracellular HSV-1 RNA ([4]; 20 μg/mL peptide): no effect; extracellular HSV-1 particles (plaques) [5]: almost no inhibitory effect |
| INWLKLGKKVSDAL-NH2 [MP III-5] | 74.8 |  |  |
| INWLKLGKKVSDIL-NH2 [MP III-13] | 60.2 |  |  |
